From patent US8778951B2, “Heteroaryl compounds and their uses” (Novartis AG, priority 2009, dated 2014)

Molecular target: Cdk9/cyclinT1 (Homo sapiens (Human), UniProt P50750)
Test: Cdk9/CyclinT1 IMAP Protocol (fluorescence polarization kinase assay)
Format: biochemical
Conditions: Table 2; generated using one of the two Cdk9/cyclinT1 assays (IMAP or Alpha Screen), not specified which; unit inferred
Procedure, shortened: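 Reaction used 4 nM Cdk9/cyclinT1, 100 nM 5TAMRA-cdk7tide peptide and 6 uM ATP in 100 mM Tris pH 7.2 with MgCl2, 0.01% Tween-20, 1 mM DTT and 2.5% DMSO, running 4.5 h. Phosphopeptide was captured by IMAP binding reagent for >1 h, then read by fluorescence polarization (ex 531/em 595 nm).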

Cdk9/cyclinT1, sequence (P50750 whole entry): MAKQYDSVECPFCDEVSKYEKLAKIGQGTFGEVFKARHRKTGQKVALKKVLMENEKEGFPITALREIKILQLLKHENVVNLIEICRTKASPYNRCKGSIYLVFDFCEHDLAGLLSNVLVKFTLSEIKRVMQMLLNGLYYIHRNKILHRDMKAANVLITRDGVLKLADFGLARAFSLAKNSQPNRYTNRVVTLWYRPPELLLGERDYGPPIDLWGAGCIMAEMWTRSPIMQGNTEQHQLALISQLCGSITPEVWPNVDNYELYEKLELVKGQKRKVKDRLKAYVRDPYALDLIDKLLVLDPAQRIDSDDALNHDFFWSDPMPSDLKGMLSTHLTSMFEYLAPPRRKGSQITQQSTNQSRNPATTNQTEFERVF
Cdk9/cyclinT1, sequence (O60563 whole entry partner): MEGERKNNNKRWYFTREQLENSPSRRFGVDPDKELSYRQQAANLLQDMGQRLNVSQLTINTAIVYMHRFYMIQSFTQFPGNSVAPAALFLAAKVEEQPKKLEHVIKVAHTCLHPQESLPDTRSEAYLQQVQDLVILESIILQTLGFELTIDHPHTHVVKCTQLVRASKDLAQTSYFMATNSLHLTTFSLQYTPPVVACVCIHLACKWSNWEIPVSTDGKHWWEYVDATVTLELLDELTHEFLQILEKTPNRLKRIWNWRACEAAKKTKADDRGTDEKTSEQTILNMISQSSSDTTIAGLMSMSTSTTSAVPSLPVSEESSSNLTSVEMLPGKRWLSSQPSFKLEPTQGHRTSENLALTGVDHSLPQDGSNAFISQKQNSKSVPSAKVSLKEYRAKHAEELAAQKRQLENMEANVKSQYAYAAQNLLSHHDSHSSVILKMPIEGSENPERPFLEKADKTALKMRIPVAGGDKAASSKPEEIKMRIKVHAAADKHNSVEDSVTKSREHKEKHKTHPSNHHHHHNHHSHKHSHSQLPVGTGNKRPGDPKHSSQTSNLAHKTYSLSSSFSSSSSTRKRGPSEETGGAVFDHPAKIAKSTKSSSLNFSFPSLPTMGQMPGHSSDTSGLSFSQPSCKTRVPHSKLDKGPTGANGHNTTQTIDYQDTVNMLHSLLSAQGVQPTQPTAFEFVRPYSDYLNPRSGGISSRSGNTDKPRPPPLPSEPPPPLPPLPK

| Structure (SMILES) | IC50 |
| --- | --- |
| OCCCNc1cc(-c2cccc(NCc3cc(F)cc(F)c3)n2)c(Cl)cn1 [Compound 189] | 7.94 nM |
| Clc1cnc(N[C@H]2CCCNC2)cc1-c1cccc(NCC2CCOCC2)n1 [Compound 96] | 1280 nM |
| O[C@H]1CC[C@H](Nc2cc(-c3cccc(NCc4cc(F)cc(F)c4)n3)c(Cl)cn2)CC1 [Compound 133] | 7.95 nM |
| N[C@H]1CC[C@H](Nc2cc(-c3cccc(NCc4ccccc4)n3)ccn2)CC1 [Compound 31] | 44.8 nM |
| N[C@H]1CC[C@H](Nc2cc(-c3cccc(NCc4ccccc4)n3)c(Cl)cn2)CC1 [Compound 25] | 8.08 nM |
| NC[C@H]1CC[C@H](Nc2cc(-c3cccc(NCC4CCCCC4)n3)c(Cl)cn2)CC1 [Compound 56] | 39.3 nM |
| N#CC1(CNc2nc(-c3cc(N[C@H]4CC[C@H](N)CC4)ncc3Cl)ccc2F)CCOCC1 [Compound 341] | 0.15 nM |
| NC(=O)c1ncc(-c2cc(N[C@H]3CC[C@H](N)CC3)ncc2Cl)nc1NCC1CCOCC1 [Compound 224, 5-(2-(trans-4-aminocyclohexylamino)-5-chloropyridin-4-yl)-3-((tetrahydro-2H-pyran-4-yl)methyl)aminopyrazine-2-carboxamide] | 91.9 nM |
| N[C@H]1CC[C@H](Nc2ncc(Cl)c(-c3cccc(NCC4CCCCC4)n3)n2)CC1 [Compound 3, trans-N1-(5-chloro-4-(6-(cyclohexylmethylamino)pyridin-2-yl)pyrimidin-2-yl)cyclohexane-1,4-diamine] | 238 nM |
| COCCN[C@H]1CC[C@H](Nc2cc(-c3cccc(NCC4CCOCC4)n3)c(Cl)cn2)CC1 [Compound 276] | 8.93 nM |
| O[C@H]1CC[C@H](Nc2cc(-c3cccc(NCC4CCNCC4)n3)c(Cl)cn2)CC1 [Compound 119] | 155 nM |
| N[C@H]1CC[C@H](Nc2cc(-c3ccc(F)c(NCC4CCOCC4)n3)c(Cl)cn2)CC1 [Compound 269, N2′-(trans-4-aminocyclohexyl)-5′-chloro-5-fluoro-N6-((tetrahydro-2H-pyran-4-yl)methyl)-2,4′-bipyridine-2′,6-diamine] | 7.95 nM |
| N[C@H]1CC[C@H](Nc2cc(-c3cccc(NCc4cccnc4)n3)c(Cl)cn2)CC1 [Compound 26] | 16.3 nM |
| CN(C)[C@H]1CC[C@H](Nc2cc(-c3cccc(NCc4cc(F)cc(F)c4)n3)c(Cl)cn2)CC1 [Compound 198] | 7.94 nM |
| O[C@H]1CC[C@H](Nc2cc(-c3cccc(NCc4cccnc4)n3)c(Cl)cn2)CC1 [Compound 120] | 45.6 nM |
| CN1CCC[C@H]1C(=O)NC[C@H]1CC[C@H](Nc2cc(-c3cccc(NCc4cccc(F)c4)n3)c(Cl)cn2)CC1 [Compound 83] | 11.6 nM |
| O[C@H]1CC[C@H](Nc2cc(-c3cccc(NCc4ccc(F)cc4)n3)c(Cl)cn2)CC1 [Compound 134] | 10.5 nM |

Next, values leading:

| IC50 | Structure (SMILES) |
| --- | --- |
| 134 nM | CN1CCC(Nc2cc(-c3cccc(NCc4cccc(F)c4)n3)c(Cl)cn2)CC1 [Compound 103] |
| 7.95 nM | OCCN[C@H]1CC[C@H](Nc2cc(-c3cccc(NCc4cccc(F)c4)n3)c(Cl)cn2)CC1 [Compound 19, 2-(trans-4-(5′-chloro-6-(3-fluorobenzylamino)-2,4′-bipyridin-2′-yl-amino)cyclohexylamino)ethanol] |
| 62 nM | CCCCNc1cc(-c2cccc(NCc3cccc(F)c3)n2)c(Cl)cn1 [Compound 173] |
| 544 nM | Nc1cc(-c2cccc(NCc3cccc(F)c3)n2)c(Cl)cn1 [Compound 179] |
| 17.5 nM | CN(C)C(=O)[C@H]1CC[C@@H](Nc2cc(-c3cccc(NCc4cccc(F)c4)n3)c(Cl)cn2)C1 [Compound 205, (1S,3R)-3-(5′-chloro-6-(3-fluorobenzylamino)-2,4′-bipyridin-2′-yl-amino)-N,N-dimethylcyclopentanecarboxamide] |
| 29 nM | Fc1cccc(CNc2cccc(-c3cc(NCCC4CCOCC4)ncc3Cl)n2)c1 [Compound 174] |
| 18 nM | Fc1cccc(CNc2cccc(-c3cc(NCC[C@@H]4CCCNC4)ncc3Cl)n2)c1 [Compound 167] |
| 27 nM | C[C@H]1C[C@@H](Nc2cc(-c3cccc(NCc4cccc(F)c4)n3)c(Cl)cn2)CC[C@@H]1N (stereo in doubt) [Compound 152] |
